Laboratory results: publication PMC8903829 (eLife, 2022)

What was measured:
Assay type in all cases: cell-based
hNaV1.6 N1768D = target: T1, hNaV1.6 N1768D (Homo sapiens, UniProt Q9UQD0, N1768D); assay: Automated patch-clamp, patient-identified variant in Expi293F cells
T1 construct: expression vector containing the full-length cDNA coding for specific human and mouse sodium channel α-subunit; expressed in transfected cells; host or cells: Expi293F (transient, tetracycline-induced, pcDNA4/TO)
Protocol: (§1) For studies of mutant channels, cDNA plasmids in pcDNA4/TO Mammalian Expression Vector were transiently transfected into Expi293F cells stably expressing human FHF2b and human SCN1B subunit (polyclonal) background using ExpiFectamine 293 Transfection Kits (Gibco,Thermo Fisher Scientific CAT #: A14524). Induction was achieved using Tetracycline (Sigma Aldrich). Transfected cells were used in automated patch-clamp experiments 24 hours postinduction.
(§2) Inorm(CPD)=(ICPD−Icontrol)/(ITTX−Icontrol).

hNaV1.6 R850Q = target: T2, hNaV1.6 R850Q (Homo sapiens, UniProt Q9UQD0, R850Q); assay: as above
T2 construct: expression vector containing the full-length cDNA coding for specific human and mouse sodium channel α-subunit; expressed in transfected cells; host or cells: Expi293F (transient, tetracycline-induced, pcDNA4/TO)
Protocol: as §1, §2

hNaV1.6 R1872W = target: T3, hNaV1.6 R1872W (Homo sapiens, UniProt Q9UQD0, R1872W); assay: as above
T3 construct: expression vector containing the full-length cDNA coding for specific human and mouse sodium channel α-subunit; expressed in transfected cells; host or cells: Expi293F (transient, tetracycline-induced, pcDNA4/TO)
Protocol: as §1, §2

hNaV1.6 R1617Q = target: T4, hNaV1.6 R1617Q (Homo sapiens, UniProt Q9UQD0, R1617Q); assay: as above
T4 construct: expression vector containing the full-length cDNA coding for specific human and mouse sodium channel α-subunit; expressed in transfected cells; host or cells: Expi293F (transient, tetracycline-induced, pcDNA4/TO)
Protocol: as §1, §2

hNaV1.6 N1877S = target: T5, hNaV1.6 N1877S (Homo sapiens, UniProt Q9UQD0, N1877S); assay: as above
T5 construct: expression vector containing the full-length cDNA coding for specific human and mouse sodium channel α-subunit; expressed in transfected cells; host or cells: Expi293F (transient, tetracycline-induced, pcDNA4/TO)
Protocol: as §1, §2

hNaV1.6 I1327V = target: T6, hNaV1.6 I1327V (Homo sapiens, UniProt Q9UQD0, I1327V); assay: as above
T6 construct: expression vector containing the full-length cDNA coding for specific human and mouse sodium channel α-subunit; expressed in transfected cells; host or cells: Expi293F (transient, tetracycline-induced, pcDNA4/TO)
Protocol: as §1, §2

mNaV1.6 = target: T7, mNaV1.6 (Mus musculus, UniProt Q9WTU3); assay: Qube 384 automated patch-clamp, inactivated-state inhibition
T7 construct: expression vector containing the full-length cDNA coding for specific human and mouse sodium channel α-subunit; expressed in transfected cells
T7 sequence (Q9WTU3 whole entry): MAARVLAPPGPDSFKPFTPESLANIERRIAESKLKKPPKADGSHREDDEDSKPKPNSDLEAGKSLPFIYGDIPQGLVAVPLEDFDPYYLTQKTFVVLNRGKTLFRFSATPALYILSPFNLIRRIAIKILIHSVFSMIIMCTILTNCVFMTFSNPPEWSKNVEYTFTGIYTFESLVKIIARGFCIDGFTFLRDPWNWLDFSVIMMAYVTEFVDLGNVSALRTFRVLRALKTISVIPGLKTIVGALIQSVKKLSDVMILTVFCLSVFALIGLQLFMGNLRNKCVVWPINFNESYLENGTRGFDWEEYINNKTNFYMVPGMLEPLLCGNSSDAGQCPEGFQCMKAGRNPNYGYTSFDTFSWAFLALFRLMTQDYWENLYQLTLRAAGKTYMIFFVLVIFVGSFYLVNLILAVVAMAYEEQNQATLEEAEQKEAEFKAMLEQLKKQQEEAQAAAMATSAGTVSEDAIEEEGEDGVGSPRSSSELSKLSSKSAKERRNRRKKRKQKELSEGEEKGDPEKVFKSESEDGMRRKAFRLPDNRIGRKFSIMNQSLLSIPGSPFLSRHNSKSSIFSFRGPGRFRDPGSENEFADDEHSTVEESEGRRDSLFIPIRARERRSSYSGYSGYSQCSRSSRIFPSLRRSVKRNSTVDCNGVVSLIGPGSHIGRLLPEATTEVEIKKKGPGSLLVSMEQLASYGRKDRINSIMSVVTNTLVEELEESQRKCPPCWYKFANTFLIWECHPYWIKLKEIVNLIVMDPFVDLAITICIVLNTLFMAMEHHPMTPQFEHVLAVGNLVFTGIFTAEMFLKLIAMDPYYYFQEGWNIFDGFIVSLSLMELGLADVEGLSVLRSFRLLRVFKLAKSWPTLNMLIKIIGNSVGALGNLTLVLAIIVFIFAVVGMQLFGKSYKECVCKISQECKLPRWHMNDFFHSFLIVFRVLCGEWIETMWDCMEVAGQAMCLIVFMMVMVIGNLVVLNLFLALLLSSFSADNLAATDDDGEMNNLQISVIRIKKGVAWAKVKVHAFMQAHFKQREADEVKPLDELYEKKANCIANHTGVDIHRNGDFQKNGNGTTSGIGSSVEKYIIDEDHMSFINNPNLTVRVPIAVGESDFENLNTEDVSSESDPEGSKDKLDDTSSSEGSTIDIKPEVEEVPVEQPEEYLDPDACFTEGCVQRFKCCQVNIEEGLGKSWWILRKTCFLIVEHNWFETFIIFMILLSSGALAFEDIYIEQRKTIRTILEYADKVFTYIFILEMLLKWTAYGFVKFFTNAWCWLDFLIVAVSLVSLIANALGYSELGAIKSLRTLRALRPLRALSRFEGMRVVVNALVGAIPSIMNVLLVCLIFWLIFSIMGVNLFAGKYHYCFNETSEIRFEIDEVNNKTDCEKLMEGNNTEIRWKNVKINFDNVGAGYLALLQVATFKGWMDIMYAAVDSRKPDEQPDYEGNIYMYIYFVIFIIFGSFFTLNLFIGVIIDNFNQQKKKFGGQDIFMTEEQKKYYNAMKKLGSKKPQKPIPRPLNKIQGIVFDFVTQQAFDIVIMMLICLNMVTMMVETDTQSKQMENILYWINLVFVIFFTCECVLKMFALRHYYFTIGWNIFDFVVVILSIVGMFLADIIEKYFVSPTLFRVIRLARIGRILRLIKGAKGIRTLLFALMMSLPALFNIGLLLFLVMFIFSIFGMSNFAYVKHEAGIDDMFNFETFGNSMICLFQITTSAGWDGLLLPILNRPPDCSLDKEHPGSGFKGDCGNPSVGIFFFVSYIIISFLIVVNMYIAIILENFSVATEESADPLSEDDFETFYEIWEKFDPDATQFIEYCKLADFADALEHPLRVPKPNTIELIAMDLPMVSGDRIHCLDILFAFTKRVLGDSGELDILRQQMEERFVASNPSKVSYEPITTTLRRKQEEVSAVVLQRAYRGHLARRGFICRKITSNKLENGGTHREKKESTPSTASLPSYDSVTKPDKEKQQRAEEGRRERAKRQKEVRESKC
T7 sequence (Q92913 1-192 isoform Q92913-2 partner): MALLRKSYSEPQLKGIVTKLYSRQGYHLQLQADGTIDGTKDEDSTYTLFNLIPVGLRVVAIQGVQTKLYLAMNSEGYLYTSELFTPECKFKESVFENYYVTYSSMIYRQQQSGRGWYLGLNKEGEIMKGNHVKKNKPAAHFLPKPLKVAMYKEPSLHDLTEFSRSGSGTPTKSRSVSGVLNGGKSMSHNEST

T3 sequence (Q9UQD0 whole entry R1872W): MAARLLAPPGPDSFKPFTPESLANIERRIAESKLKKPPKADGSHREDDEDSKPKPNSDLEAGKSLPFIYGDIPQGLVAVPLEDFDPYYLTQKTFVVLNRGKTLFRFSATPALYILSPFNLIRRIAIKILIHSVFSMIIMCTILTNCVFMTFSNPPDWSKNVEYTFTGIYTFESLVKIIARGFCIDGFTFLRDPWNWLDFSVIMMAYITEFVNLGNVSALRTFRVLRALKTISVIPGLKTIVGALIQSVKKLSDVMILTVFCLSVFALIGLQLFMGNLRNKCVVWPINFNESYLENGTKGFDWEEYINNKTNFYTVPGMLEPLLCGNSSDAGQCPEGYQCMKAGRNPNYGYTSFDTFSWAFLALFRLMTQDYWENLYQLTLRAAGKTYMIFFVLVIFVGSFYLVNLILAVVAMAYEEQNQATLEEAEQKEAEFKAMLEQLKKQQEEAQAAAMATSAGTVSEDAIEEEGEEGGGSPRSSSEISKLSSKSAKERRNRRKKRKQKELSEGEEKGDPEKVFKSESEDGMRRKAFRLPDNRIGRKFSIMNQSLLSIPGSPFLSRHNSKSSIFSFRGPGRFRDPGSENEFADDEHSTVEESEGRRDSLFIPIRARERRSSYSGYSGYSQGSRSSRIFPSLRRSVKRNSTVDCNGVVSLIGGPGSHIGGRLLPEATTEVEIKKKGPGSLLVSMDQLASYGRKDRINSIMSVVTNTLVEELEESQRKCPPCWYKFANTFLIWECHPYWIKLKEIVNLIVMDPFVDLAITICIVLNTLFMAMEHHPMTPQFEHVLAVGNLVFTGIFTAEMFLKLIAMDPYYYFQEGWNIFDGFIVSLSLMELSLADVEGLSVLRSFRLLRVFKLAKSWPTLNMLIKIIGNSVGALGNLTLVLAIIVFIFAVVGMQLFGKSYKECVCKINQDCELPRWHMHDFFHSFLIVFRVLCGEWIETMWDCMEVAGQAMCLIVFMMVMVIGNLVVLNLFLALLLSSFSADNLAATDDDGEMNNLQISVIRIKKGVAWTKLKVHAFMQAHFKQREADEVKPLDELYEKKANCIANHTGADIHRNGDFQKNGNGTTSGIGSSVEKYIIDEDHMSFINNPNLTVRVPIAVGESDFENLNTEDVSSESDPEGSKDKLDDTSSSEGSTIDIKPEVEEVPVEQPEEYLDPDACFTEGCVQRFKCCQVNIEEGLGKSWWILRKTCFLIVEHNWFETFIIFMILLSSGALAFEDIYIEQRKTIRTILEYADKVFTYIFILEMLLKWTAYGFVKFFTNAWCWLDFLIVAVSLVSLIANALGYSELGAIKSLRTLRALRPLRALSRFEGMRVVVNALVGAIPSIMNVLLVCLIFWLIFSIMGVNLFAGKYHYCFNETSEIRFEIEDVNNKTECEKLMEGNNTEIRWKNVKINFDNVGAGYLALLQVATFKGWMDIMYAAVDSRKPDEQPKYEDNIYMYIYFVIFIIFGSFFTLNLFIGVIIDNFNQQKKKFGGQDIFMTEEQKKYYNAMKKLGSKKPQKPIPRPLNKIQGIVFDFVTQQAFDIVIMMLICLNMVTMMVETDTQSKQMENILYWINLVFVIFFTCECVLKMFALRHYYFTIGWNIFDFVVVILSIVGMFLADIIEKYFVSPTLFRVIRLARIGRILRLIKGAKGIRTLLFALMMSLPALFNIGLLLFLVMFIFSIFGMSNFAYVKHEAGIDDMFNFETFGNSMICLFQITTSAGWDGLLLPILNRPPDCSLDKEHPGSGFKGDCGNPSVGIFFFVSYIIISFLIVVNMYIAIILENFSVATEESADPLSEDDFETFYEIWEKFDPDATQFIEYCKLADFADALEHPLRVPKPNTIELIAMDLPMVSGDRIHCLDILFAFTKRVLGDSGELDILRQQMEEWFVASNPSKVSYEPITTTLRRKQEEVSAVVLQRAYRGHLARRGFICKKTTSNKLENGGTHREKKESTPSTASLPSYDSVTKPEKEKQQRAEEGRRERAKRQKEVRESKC
T4 sequence (Q9UQD0 whole entry R1617Q): as the sequence (Q9UQD0 whole entry R1872W) above, with R1617Q, W1872R counted along it
T1 sequence (Q9UQD0 whole entry N1768D): as the sequence (Q9UQD0 whole entry R1872W) above, with N1768D, W1872R counted along it
T2 sequence (Q9UQD0 whole entry R850Q): as the sequence (Q9UQD0 whole entry R1872W) above, with R850Q, W1872R counted along it
T6 sequence (Q9UQD0 whole entry I1327V): as the sequence (Q9UQD0 whole entry R1872W) above, with I1327V, W1872R counted along it
T5 sequence (Q9UQD0 whole entry N1877S): as the sequence (Q9UQD0 whole entry R1872W) above, with W1872R, N1877S counted along it

Structure (SMILES): Cc1cc(S(=O)(=O)Nc2cscn2)c(F)cc1N(C)[C@H]1CCN(Cc2ccccc2)C1 [NBI-921352]
- h1.6-N1768D 145756 norm, Mean (hNaV1.6 N1768D; -5 LogM): 0.9
- h1.6-N1768D 145756 norm, Mean (hNaV1.6 N1768D; -5.47716 LogM): 0.88
- h1.6-N1768D 145756 norm, Mean (hNaV1.6 N1768D; -5.95429 LogM): 0.82
- h1.6-N1768D 145756 norm, Mean (hNaV1.6 N1768D; -6.4318 LogM): 0.74
- h1.6-N1768D 145756 norm, Mean (hNaV1.6 N1768D; -6.91009 LogM): 0.62
- h1.6-N1768D 145756 norm, Mean (hNaV1.6 N1768D; -7.38722 LogM): 0.46
- h1.6-N1768D 145756 norm, Mean (hNaV1.6 N1768D; -7.85387 LogM): 0.18
- h1.6-N1768D 145756 norm, Mean (hNaV1.6 N1768D; -8.33 LogM): 0.03
- IC50 (hNaV1.6 R850Q): 21 nM
- h1.6-R850Q 145756, Mean (hNaV1.6 R850Q; -5 LogM): 0.91
- h1.6-R850Q 145756, Mean (hNaV1.6 R850Q; -5.47716 LogM): 0.88
- h1.6-R850Q 145756, Mean (hNaV1.6 R850Q; -5.95429 LogM): 0.86
- h1.6-R850Q 145756, Mean (hNaV1.6 R850Q; -6.4318 LogM): 0.83
- h1.6-R850Q 145756, Mean (hNaV1.6 R850Q; -6.91009 LogM): 0.79
- h1.6-R850Q 145756, Mean (hNaV1.6 R850Q; -7.38722 LogM): 0.58
- h1.6-R850Q 145756, Mean (hNaV1.6 R850Q; -7.85387 LogM): 0.43
- h1.6-R850Q 145756, Mean (hNaV1.6 R850Q; -8.33 LogM): 0.13
- h1.6-R1872W 145756, Mean (hNaV1.6 R1872W; -5 LogM): 0.9
- h1.6-R1872W 145756, Mean (hNaV1.6 R1872W; -6 LogM): 0.87
- h1.6-R1872W 145756, Mean (hNaV1.6 R1872W; -7 LogM): 0.55
- h1.6-R1872W 145756, Mean (hNaV1.6 R1872W; -8 LogM): 0.13
- h1.6-R1617Q 145756, Mean (hNaV1.6 R1617Q; -5 LogM): 0.85
- h1.6-R1617Q 145756, Mean (hNaV1.6 R1617Q; -6 LogM): 0.64
- h1.6-R1617Q 145756, Mean (hNaV1.6 R1617Q; -7 LogM): 0.24
- h1.6-R1617Q 145756, Mean (hNaV1.6 R1617Q; -8 LogM): 0.07
- h1.6-N1877S 145756 norm, Mean (hNaV1.6 N1877S; -5 LogM): 0.94
- h1.6-N1877S 145756 norm, Mean (hNaV1.6 N1877S; -5.47716 LogM): 0.93
- h1.6-N1877S 145756 norm, Mean (hNaV1.6 N1877S; -5.95429 LogM): 0.88
- h1.6-N1877S 145756 norm, Mean (hNaV1.6 N1877S; -6.4318 LogM): 0.84
- h1.6-N1877S 145756 norm, Mean (hNaV1.6 N1877S; -6.91009 LogM): 0.68
- h1.6-N1877S 145756 norm, Mean (hNaV1.6 N1877S; -7.38722 LogM): 0.53
- h1.6-N1877S 145756 norm, Mean (hNaV1.6 N1877S; -7.85387 LogM): 0.27
- h1.6-N1877S 145756 norm, Mean (hNaV1.6 N1877S; -8.33 LogM): 0.1
- IC50 (hNaV1.6 I1327V): 35 nM
- h1.6-I1327V 145756, Mean (hNaV1.6 I1327V; -5 LogM): 0.91
- h1.6-I1327V 145756, Mean (hNaV1.6 I1327V; -5.47716 LogM): 0.88
- h1.6-I1327V 145756, Mean (hNaV1.6 I1327V; -5.95429 LogM): 0.9
- h1.6-I1327V 145756, Mean (hNaV1.6 I1327V; -6.4318 LogM): 0.82
- h1.6-I1327V 145756, Mean (hNaV1.6 I1327V; -6.91009 LogM): 0.67
- h1.6-I1327V 145756, Mean (hNaV1.6 I1327V; -7.38722 LogM): 0.56
- h1.6-I1327V 145756, Mean (hNaV1.6 I1327V; -7.85387 LogM): 0.29
- h1.6-I1327V 145756, Mean (hNaV1.6 I1327V; -8.33 LogM): 0.13
- mNaV1.6 current (352)/(Vehicle) (mNaV1.6; -5 Log M): 0.92
- mNaV1.6 current (352)/(Vehicle) (mNaV1.6; -5.47716 Log M): 0.9
- mNaV1.6 current (352)/(Vehicle) (mNaV1.6; -5.95429 Log M): 0.84
- mNaV1.6 current (352)/(Vehicle) (mNaV1.6; -6.91009 Log M): 0.63
- mNaV1.6 current (352)/(Vehicle) (mNaV1.6; -7.38722 Log M): 0.48
- mNaV1.6 current (352)/(Vehicle) (mNaV1.6; -7.85387 Log M): 0.27
- mNaV1.6 current (352)/(Vehicle) (mNaV1.6; -8.30103 Log M): 0.12
- IC50 (mNaV1.6; Vh -45 mV): 58 nM
